Test [1] relates to C. difficile 630Δerm. Kind of test: Toxicity growth curves (OD590 nm) of C. difficile monoculture in minimal media. In kind it is cell-based, Clostridioides difficile. The settings on record: 8-hour growth curve; for effect on the growth of C. difficile (growth curve, OD590 nm): compound 6.6 mM in MM with 1% DMSO, FIGS. 1a to 5b. As to the method:
(§1) Compounds EX1 to EX5 were separately tested to determine their toxicity to C. difficile and E. coli.
(§2) Each compound was dissolved to 6.6 mM in minimal media (MM) with 1% DMSO based on the MM described by Cartman et al. in Appln. Environ. Microbiol, 2010, 76, 1103 and the concentration was matched in a 1:1 ratio of the compound to the substrate p-HPA.
(§3) To determine growth rates of C. difficile and E. coli in the presence of compounds EX1 to EX5, three colonies of C. difficile or three colonies of E. coli were used to inoculate a primary culture of 10 mL MM in 50 cm^3 vented tissue culture flasks (Thermo Scientific). Following overnight incubation on a shaking platform at 50 rpm, the primary culture was back diluted in MM to OD590 nm 0.5 using a Fisherbrand™ Digital Colorimeter model 4.5 (Fisher Scientific). 1 ml of the OD590 nm 0.5 culture was inoculated into 10 ml of MM in 50 cm^3 vented tissue culture flasks with and without 4-hydroxyphenylacetic acid and the relevant compound (EX1 to EX5).
(§4) OD590 nm readings were determined every hour for eight hours using a Fisherbrand™ Digital Colorimeter model 4.5 (Fisher Scientific).
(§5) Growth curves denoting growth over an 8-hour time period for C. difficile and E. coli in MM with the presence of 4-hydroxyphenylacetic acid and inhibitors EX1 to EX5, each at 6.6 mM. Absorbance was measured at OD590 nm. *p<0.05, **p<0.01, samples represent a minimum of three biological replicates graphed in GraphPad prism (v9). Raw absorbance was normalised using a blank MM control.

The test system of test [2] is E. coli. Kind of test: Toxicity growth curves (OD590 nm) of E. coli monoculture in minimal media. It counts as cell-based, Escherichia coli. The settings on record: compound 6.6 mM in MM with 1% DMSO, 8-hour growth curve, FIGS. 1a to 5b. As to the method:
as §1, §2, §3, §4, §5

For test [3], the system named is production of 4-methylphenol by C. difficile. Kind of test: HPLC of C. difficile monocultures: 4-methylphenol (p-cresol) production. The settings on record: 630Δerm, 8 hours, 1.5 mg/ml p-HPA with matched 6.6 mM compound, normalised to OD590 nm, FIG. 14. In kind it is cell-based, Clostridioides difficile. As to the method:
C. difficile monocultures were established in the presence of the following compounds EX1, EX3, EX5 and EX8.
Samples of 630Δerm were collected following growth in minimal media with 1% DMSO v/v for 8 hours with 1.5 mg/ml p-HPA with matched (6.6 mM) concentrations of compounds EX1, EX3, EX5 and EX8. At the time of sample collection, the OD590 nm of the culture was measured. Samples were immediately filter sterilised using 0.22 μm filters, then frozen at −80° C. prior to HPLC analysis.
The filter-sterilized samples were transferred to HPLC vials and analysed immediately by injecting onto the HPLC column. Separations were achieved by utilizing an Acclaim 120 (Thermofisher), C18, 5 μm (4.6×150 mm), with the mobile phase consisting of ammonium formate (10 mM, pH 2.7) and […] (v/v; 50:50) at a flow rate of 1400 μl/min. p-HPA and p-cresol were detected by the diode array detector (PDA; DAD 3000) set at 280 nm. Peak identity was confirmed by measuring the retention time of commercially available p-HPA and p-cresol, and determination of absorbance spectra was performed using the DAD. A calibration curve of each compound was generated by Chromeleon (Dionex software) using known amounts of the reference standards (0-5 mg/ml) dissolved in media and injected onto the column, and the amount of p-HPA and p-cresol in the samples was determined. Samples from three independent biological replicates were analysed compared to media controls and standard curves. The limit of detection for p-HPA and p-cresol are 0.001 and 0.0005 mg/ml, respectively. The p-cresol concentration was normalised to growth by using the OD590 nm measured at the time of sample collection.

Test [4] shares this test system. Kind of test: HPLC of C. difficile / E. coli co-culture: 4-methylphenol production. It counts as cell-based, Clostridioides difficile. The settings on record: 630Δerm and E. coli co-culture, no normalisation to OD590 nm, FIG. 15. As to the method:
A C. difficile 630Δerm and E. coli co-culture was established (as per the methods previously described) in the presence of compound EX3.
Following co-culture, CFU assays were undertaken to determine relative survival of C. diff and E. coli. The remaining sample was filter sterilised (0.22 μm filters), then frozen at −80° C. prior to the HPLC analysis. HPLC analysis was carried out as described above (HPLC monocultures) with the exception of there being no normalisation of the 4-methylphenol concentration to OD590 nm.

The subject of test [5] is C. difficile 630Δerm. Kind of test: Co-culture of C. difficile and E. coli, CFU percentages: C. difficile. It counts as cell-based, Clostridioides difficile. The conditions noted are these: MM + 6.6 mM p-HPA + 6.6 mM inhibitor, 1% DMSO, 14 hours co-culture, FIGS. 7 to 13. The protocol: (§6) Compounds EX1 to EX7 were tested to determine their ability to reduce the growth of C. difficile relative to E. coli.
(§7) C. difficile 630Δerm and E. coli were grown overnight in MM. C. difficile was back diluted to an OD590 nm of 0.2. 18 μl of the back dilution was added to 1.8 ml of the test conditions: MM, MM+6.6 mM p-HPA, MM+6.6 mM inhibitor, and MM+6.6 mM p-HPA+6.6 mM inhibitor, in a 24 well plate. Each inhibitor was dissolved in DMSO such that the final concentration in the 24 well plate was 1% v/v. C. difficile was grown for 8 hours before E. coli underwent back dilution to an OD590 nm of 0.2 and 18 μl was inoculated into the C. difficile wells to give the co-culture. The co-culture was grown for 14 hours. The proportion of the co-cultures made up by C. difficile and E. coli were determined by colony-forming units per millilitre (CFU/ml) assays with co-cultures plated on to BHIS plates in duplicate with selective media for each species. C. difficile was selected for using cycloserine (250 mg/l) and cefoxitin (8 mg/l) whilst E. coli was selected for using vancomycin (4 mg/l). […] CFUs were counted on the following day. CFU data is presented using CFU percentages which were calculated by dividing the number of CFUs for each species by the total number of CFUs for both E. coli and C. difficile and multiplying by 100. […] Data was analysed by linear regression carried using Stata17.

Test [6] concerns E. coli. Kind of test: Co-culture of C. difficile and E. coli, CFU percentages: E. coli. It counts as cell-based, Escherichia coli. The conditions noted are these: MM + 6.6 mM p-HPA + 6.6 mM inhibitor, 1% DMSO, 14 hours co-culture, FIGS. 7 to 13. The protocol:
as §6, §7

The structures appear in SMILES notation.

As to `NC(=O)Cc1ccc(O)cc1` [EX1], the “effect on the growth of C. difficile (growth curve, OD590 nm)” value in test [1] was “no effect on the growth”. The “effect on the growth of E. coli (growth curve, OD590 nm)” value (“effect on the growth of E. coli” for short) in test [2] is “inhibited the growth”. Moreover, the “production of 4-methylphenol by C. difficile (HPLC, monoculture)” value (“production … (HPLC, monoculture)” below) in test [3] is “reduced”.

Regarding `OCCc1ccc(O)cc1` [EX2], the “effect on the growth of C. difficile (growth curve, OD590 nm)” value in test [1] is “toxic”. Besides, in test [2], the “effect on the growth of E. coli” value is “toxic”.

Take `N#CCc1ccc(O)cc1` [EX3]: the “effect on the growth of C. difficile when both compound and p-HPA present” value in test [1] (compound 6.6 mM + p-HPA 6.6 mM (1:1) in MM) is on record as “inhibited the growth”. Further, the “effect on the growth of E. coli” value in test [2] was “inhibited the growth”. Moreover, the “production … (HPLC, monoculture)” value in test [3] is reported as “reduced”. Also, the “production of 4-methylphenol by C. difficile (HPLC, co-culture with E. coli)” value in test [4] was “reduced”.

Regarding `O=C(O)CCc1ccc(O)cc1` [EX4], in test [1], the “effect on the growth of C. difficile (growth curve, OD590 nm)” value is “no effect on the growth”.

In the case of `O=C(O)c1ccc(O)cc1` [EX5], in test [1], the “effect on the growth of C. difficile (growth curve, OD590 nm)” value is reported as “no effect on the growth”. Moreover, in test [2], the “effect on the growth of E. coli” value is given as “no effect on the growth”. Also, in test [3], the “production … (HPLC, monoculture)” value is “reduced”.

Turning to `CC(C)(C(=O)O)c1ccc(O)cc1` [EX6], the “inhibition of the growth of C. difficile in co-culture with E. coli (CFU percentage)” value in test [5] was “able to inhibit the growth”. The “impact on the growth of E. coli in co-culture with C. difficile” value in test [6] was “little or no negative impact”.

In the case of `O=C(O)Cc1ccc(O)cc1` [EX7], the “inhibition of the growth of C. difficile in co-culture with E. coli (CFU percentage)” value in test [5] was “able to inhibit the growth”. For the same compound, the “impact on the growth of E. coli in co-culture with C. difficile” value in test [6] is on record as “little or no negative impact”.

On to `COC(=O)Cc1ccc(O)cc1` [EX8], for which the “production … (HPLC, monoculture)” value in test [3] is reported as “reduced”.

For the origin of these results see patent US20260109664A1, “COMPOUNDS FOR USE AS MEDICAMENTS” (priority 2022, published 2026).
